The values that follow come from patent publication EP4227307A1 (Genzyme Corporation, priority 2022, dated 2023).

pIC50: −log10 of the molar value. Where a name gives a salt, the structure may show the parent alone.

The experiment deals with T1, human recombinant 6His-Nterm SHP2 full-length (Thr2-Arg593) (Homo sapiens, UniProt Q06124).
T1 construct: 6His-Nterm SHP2 full-length (Thr2-Arg593, R&D system); 6His (N); purchased R&D system
T1 sequence (Q06124 2-593): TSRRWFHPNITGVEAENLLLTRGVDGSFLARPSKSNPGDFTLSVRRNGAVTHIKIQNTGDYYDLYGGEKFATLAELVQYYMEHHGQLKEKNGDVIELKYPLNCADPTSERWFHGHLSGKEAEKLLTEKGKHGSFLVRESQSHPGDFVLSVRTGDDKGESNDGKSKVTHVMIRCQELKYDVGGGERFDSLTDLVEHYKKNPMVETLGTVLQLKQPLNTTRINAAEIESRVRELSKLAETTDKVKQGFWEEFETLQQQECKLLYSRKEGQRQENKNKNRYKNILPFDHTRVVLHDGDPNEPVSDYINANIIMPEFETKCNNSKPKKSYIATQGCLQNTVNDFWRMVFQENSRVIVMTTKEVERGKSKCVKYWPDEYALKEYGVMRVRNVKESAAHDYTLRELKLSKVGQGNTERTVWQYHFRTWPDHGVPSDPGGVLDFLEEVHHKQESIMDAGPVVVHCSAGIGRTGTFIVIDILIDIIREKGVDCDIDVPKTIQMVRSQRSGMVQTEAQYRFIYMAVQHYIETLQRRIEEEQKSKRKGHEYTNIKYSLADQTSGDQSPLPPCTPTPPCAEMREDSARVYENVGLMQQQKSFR
In words: SHP2 Phosphatase Assay (DiFMUP fluorescence). The format is biochemical. As to conditions: SHP2 0.2 nM pre-incubated with 100 nM bi-phosphorylated activating peptide; compound 1000-0.05 nM, 30 min pre-incubation; DiFMUP 20 µM, 45 min, room temperature; 10-concentration dose-response. Put shortly: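 SHP2 (0.2 nM) preactivated ≥10 min with 100 nM bis-phosphorylated peptide, then 30 min with compound (10 concentrations, 1000–0.05 nM) at room temperature, pH 7.2 HEPES buffer with DTT. DiFMUP (20 µM, added solution) reacted 45 min, pervanadate-stopped; fluorescence 350/450 nm. IC50 by 4-parameter logistic fit.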
As a reminder, the pIC50 is −log10 of the IC50, conventionally taken in molar units. In the case of `Cc1nc2c(s1)[C@@H](N)C1(CCN(c3nc(C)c(-c4ccnc(C)c4Cl)n4nccc34)CC1)C2` [Compound 84, (6S)-1'-[7-(3-chloro-2-methyl-4-pyridyl)-6-methyl-pyrazolo[1,5-a]pyrazin-4-yl]-2-methyl-spiro[4,6-dihydrocyclopenta[d]thiazole-5,4'-piperidine]-6-amine hydrochloride], the pIC50 is 8.30. As for `Cc1nc(-c2c(C)nc(N3CCC4(CC3)Cc3ncccc3[C@H]4N)c3ccnn23)cs1` [Compound 158, (5S)-1'-[6-methyl-7-(2-methylthiazol-4-yl)pyrazolo[1,5-a]pyrazin-4-yl]spiro[5,7-dihydrocyclopenta[b]pyridine-6,4'-piperidine] -5-amine hydrochloride], the pIC50 is 7.33. Regarding `Cc1nc(N2CCC3(CC2)Cc2ncccc2[C@H]3N)c2ccnn2c1-c1ccccc1F` [Compound 51, (5S)-1'-[7-(2-fluorophenyl)-6-methyl-pyrazolo[1,5-a]pyrazin-4-yl]spiro[5,7-dihydrocyclopenta[b]pyridine-6,4'-piperidine]-5-amine], the pIC50 is 8.30. On to `COc1cccc(-c2cnc(N3CCC4(CC3)Cc3ncccc3[C@H]4N)c3ccnn23)c1F` [Compound 85, (5S)-1'-[7-(2-fluoro-3-methoxyphenyl)pyrazolo[1,5-a]pyrazin-4-yl]spiro[5,7-dihydrocyclopenta[b]pyridine-6,4'-piperidine] -5-amine hydrochloride], for which the pIC50 was 7.57. The value for `COc1ccc(Cl)c(-c2c(C)nc(N3CCC4(CC3)Cc3ncccc3[C@H]4N)c3ccnn23)c1` [Compound 173, (5S)-1'-[7-(2-chloro-5-methoxy-phenyl)-6-methyl-pyrazolo[1,5-a]pyrazin-4-yl]spiro[5,7-dihydrocyclopenta[b]pyridine-6,4'-piperidine]-5-amine] was 7.82; that for `Cc1nc(N2CCC3(CC2)[C@H](N)c2ccccc2N3C)c2ccnn2c1-c1ccccc1F` [Compound 155, (3R)-1'-[7-(2-fluorophenyl)-6-methyl-pyrazolo[1,5-a]pyrazin-4-yl]-1-methyl-spiro [indoline-2,4'-piperidine]-3-amine] was 6.69. In the case of `Cc1nc(N2CCC3(CC2)Cc2ncccc2[C@H]3N)c2ccnn2c1-c1ccc2c(c1)CCO2` [Compound 188, (5S)-1'-[7-(2,3-dihydrobenzofuran-5-yl)-6-methyl-pyrazolo[1,5-a]pyrazin-4-yl]spiro[5,7-dihydrocyclopenta[b]pyridine-6,4'-piperidine]-5-amine], the pIC50 is 8.15. Regarding `Cc1nc(N2CCC3(CC2)Cc2ncccc2[C@H]3N)c2ccnn2c1Sc1ccnc(N)c1Cl` [Compound 232, (5S)-1'-[7-[(2-amino-3-chloro-4-pyridyl)sulfanyl]-6-methyl-pyrazolo[1,5-a]pyrazin-4-yl]spiro[5,7-dihydrocyclopenta[b]pyridine-6,4'-piperidine]-5-amine], the pIC50 was 8.40. On to `Cc1nc(N2CCC3(CC2)Cc2ccc(F)cc2[C@H]3N)c2ccnn2c1-c1cnn(C)c1C` [Compound 103, (1S)-1'-[7-(1,5-dimethylpyrazol-4-yl)-6-methyl-pyrazolo[1,5-a]pyrazin-4-yl]-6-fluoro-spiro [indane-2,4'-piperidine]-1-amine hydrochloride], for which the pIC50 is 7.92. The value for `Cc1nccc(-c2c(C)nc(N3CCC4(CC3)Cc3ncccc3[C@H]4N)c3ccnn23)c1Cl` [Compound 45, (5S)-1'-[7-(3-cldoro-2-methyl-4-pyridyl)-6-methyl-pyrazolo[1,5-a]pyrazin-4-yl]spiro[5,7-dihydrocyclopenta[b]pyridine-6,4'-piperidine]-5-amine] was 8.10; that for `COc1ccc2c(n1)[C@@H](N)C1(CCN(c3nc(C)c(-c4cccc(F)c4F)n4nccc34)CC1)C2` [Compound 213, (7S)-1'-[7-(2,3-difluorophenyl)-6-methyl-pyrazolo[1,5-a]pyrazin-4-yl]-2-methoxy-spiro[5,7-dihydrocyclopenta[b]pyridine-6,4'-piperidine]-7-amine] was 7.66. The value for `Cc1nc(N2CCC3(CC2)Cc2ncccc2[C@H]3N)c2ccnn2c1-c1cscc1C#N` [Compound 46, 4-[4-[(5S)-5-aminospiro[5,7-dihydrocyclopenta[b]pyridine-6,4'-piperidine]-1'-yl]-6-methyl-pyrazolo[1,5-a]pyrazin-7-yl]thiophene-3-carbonitrile] was 7.14; that for `COc1ccc2c(c1)CC1(CCN(c3nc(C)c(-c4cnn(C)c4C)n4nccc34)CC1)[C@@H]2N` [Compound 62, (1S)-1'-[7-(1,5-dimethylpyrazol-4-yl)-6-methyl-pyrazolo[1,5-a]pyrazin-4-yl]-5-methoxy-spiro[indane-2,4'-piperidine]-1-amine] was 7.77; that for `COc1ccc2c(c1)[C@@H](N)C1(CCN(c3nc(C)c(-c4cc(C(F)(F)F)nn4C)n4nccc34)CC1)C2` [Compound 127, (1S)-6-methoxy-1'-[6-methyl-7-[2-methyl-5-(trifluoromethyl)pyrazol-3-yl]pyrazolo[1,5-a]pyrazin-4-yl]spiro[indane-2,4'-pipendine]-1-amine hydrochloride] was 7.66. Regarding `Cc1nc(N2CCC3(CC2)Oc2ncccc2[C@H]3N)c2ccnn2c1-c1cccc(F)c1C(F)(F)F` [Compound 129, (3R)-1'-[7-[3-fluoro-2-(trifluoromethyl)phenyl]-6-methyl-pyrazolo[1,5-a]pyrazin-4-yl]spiro[3H-furo[2,3-b]pyridine-2,4'-piperidine]-3-amine], the pIC50 is less than 6.00. The value for `Cc1nc(N2CCC3(CC2)Cc2ncccc2[C@H]3N)c2ccnn2c1-c1ccncc1` [Compound 70, (5S)-1'-[6-methyl-7-(4-pyridyl)pyrazolo[1,5-a]pyrazin-4-yl]spiro[5,7-dihydrocyclopenta[b]pyridine-6,4'-piperidine]-5-amine hydrochloride] was 7.14. The value for `COc1ccc2c(c1)CC1(CCN(c3nc(C)c(-c4ccnc(C)c4Cl)n4nccc34)CC1)[C@@H]2N` [Compound 6, (1S)-1'-[7-(3-chloro-2-methyl-4-pyridyl)-6-methyl-pyrazolo[1,5-a]pyrazin-4-yl]-5-methoxy-spiro[indane-2,4'-piperidine]-1-amine] was 8.10; that for `Cc1nc(N2CCC3(CC2)Cc2ncccc2[C@H]3N)c2ccnn2c1-c1ccc(N)nc1` [Compound 177, (5S)-1'-[7-(6-amino-3-pyridyl)-6-methyl-pyrazolo[1,5-a]pyrazin-4-yl]spiro[5,7-dihydrocyclopenta[b]pyridine-6,4'-piperidine]-5-amine] was 7.57. The value for `CCn1ncc(-c2c(C)nc(N3CCC4(CC3)Cc3ccc(OC)cc3[C@H]4N)c3ccnn23)c1C` [Compound 125, (1S)-1'-[7-(1-ethyl-5-methyl-pyrazol-4-yl)-6-methyl-pyrazolo[1,5-a]pyrazin-4-yl]-6-methoxy-spiro [indane-2,4'-piperidine]-1-amine hydrochloride] was 8.05; that for `Cc1nc(N2CCC3(CC2)Cc2ccncc2[C@H]3N)c2ccnn2c1-c1ccccc1F` [Compound 134, (7S)-1'-[7-(2-fluorophenyl)-6-methyl-pyrazolo[1,5-a]pyrazin-4-yl]spiro[5,7-dihydrocyclopenta[c]pyridine-6,4'-piperidine]-7-amine] was 8.40. `Cc1nc(N2CCC3(CC2)Cc2ncccc2[C@H]3N)c2ccnn2c1-c1ccc2c(c1)CCN2C` [Compound 171, (5S)-1'-[6-methyl-7-(1-methylindolin-5-yl)pyrazolo[1,5-a]pyrazin-4-yl]spiro[5,7-dihydrocyclopenta[b]pyridine-6,4'-piperidine]-5-amine]: the pIC50 is 7.70. `Cc1nc(N2CCC3(CC2)Cc2ncccc2[C@H]3N)c2ccnn2c1-c1cncc(Cl)c1` [Compound 199, (5S)-1'-[7-(5-chloro-3-pyridyl)-6-methyl-pyrazolo[1,5-a]pyrazin-4-yl]spiro[5,7-dihydrocyclopenta[b]pyridine-6,4'-piperidine]-5-amine]: the pIC50 is 7.85.

For `Cc1nc(N2CCC3(CC2)Cc2nc(O)ccc2[C@H]3N)c2ccnn2c1-c1cccc(F)c1F` [Compound 222, (5S)-5-amino-1'-[7-(2,3-difluorophenyl)-6-methyl-pyrazolo[1,5-a]pyrazin-4-yl]spiro[5,7-dihydrocyclopenta[b]pyridine-6,4'-piperidine]-2-ol hydrochloride], the pIC50 is 9.00.

As to `COc1ccc(-c2c(C)nc(N3CCC4(CC3)Cc3ncccc3[C@H]4N)c3ccnn23)c(F)c1F` [Compound 175, (5 S)-1'-[7-(2,3-difluoro-4-methoxy-phenyl)-6-methyl-pyrazolo[1,5-a]pyrazin-4-yl]spiro[5,7-dihydrocyclopenta[b]pyridine-6,4'-piperidine]-5-amine], the pIC50 was 8.40.
